Experimental data published in paper PMC6151435, “Bioactivity In Vitro of Quercetin Glycoside Obtained in Beauveria bassiana Culture and Its Interaction with Liposome Membranes” (Molecules : A Journal of Synthetic Chemistry and Natural …, 2017).

Experiments:
[1] = 1H-NMR study of interaction with DPPC liposomes (PrCl3 shift reagent); conditions: 0.24 mM compound
Description: The ^1H-NMR method of investigating the Q 7-MeGlu and Q interaction with liposomes was described earlier by Gabrielska et al. with minor modifications. Mixtures of phospholipids (DPPC) with studied compounds were co-dissolved in a chloroform/methanol mixture (55:1 v/v) at the respective concentrations. The lipid concentration in the sample was 36 mM and that of Q 7-MeGlu and Q was 0.24 mM […]. The samples were first evaporated under a stream of nitrogen and then in a vacuum (overnight). Then the samples were hydrated with D2O and vigorously shaken (15 min) at temperature above the main phase transition of lipid (41 °C) until optical homogeneity of the mixture was reached. Next, the lipid suspension was sonicated with a 20 kHz sonicator (20 kHz, Sonic, Italy) to yield a homogeneous lipid dispersion. Briefly, before the measurements a 4 mM praseodymium trichloride (PrCl3 × 6H2O) in heavy water solution […] was added to the sample of 0.6 mL liposome suspension. ^1H-NMR parameters were as follows: spectral window 12.019 Hz, digital resolution 0.183 Hz, acquisition and delay times 2.73 s and 1.00 s, respectively, and acquisition temperature 325 K. The experiment was performed in two replicates.

COX-1 = target: T1, COX-1 (Ovis aries, UniProt P05979); assay: Inhibition of cyclooxygenase 1 (spectrophotometric, TMPD); type: biochemical, sheep; conditions: Tris-HCl pH 8.0, room temperature
T1 construct: purchased Sigma-Aldrich
T1 sequence (P05979 25-600): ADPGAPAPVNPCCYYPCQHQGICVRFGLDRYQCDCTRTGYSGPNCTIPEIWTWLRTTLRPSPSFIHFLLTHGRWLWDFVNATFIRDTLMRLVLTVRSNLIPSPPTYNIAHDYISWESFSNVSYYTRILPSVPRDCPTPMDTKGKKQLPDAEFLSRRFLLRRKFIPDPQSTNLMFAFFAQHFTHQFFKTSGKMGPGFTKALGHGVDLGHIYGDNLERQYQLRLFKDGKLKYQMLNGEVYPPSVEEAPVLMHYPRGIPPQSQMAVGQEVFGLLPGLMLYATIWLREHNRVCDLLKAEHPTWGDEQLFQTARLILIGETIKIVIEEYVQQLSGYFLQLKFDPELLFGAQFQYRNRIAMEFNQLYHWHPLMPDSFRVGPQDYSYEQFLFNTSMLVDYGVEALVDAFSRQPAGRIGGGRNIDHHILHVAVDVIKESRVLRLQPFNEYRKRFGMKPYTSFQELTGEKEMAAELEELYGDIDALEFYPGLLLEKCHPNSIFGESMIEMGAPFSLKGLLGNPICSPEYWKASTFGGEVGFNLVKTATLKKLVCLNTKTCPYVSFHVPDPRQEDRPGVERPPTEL
From the text: The probes 1,6-diphenyl-1,3,5-hexatriene (DPH), 3-[p-(6-phenyl)-1,3,5-hexatrienyl]propionic acid (DPH-PA), Merocyanine 540 (MC540), and N,N,N-trimethyl-4-(6-phenyl-1,3,5-hexatrien-1-yl)phenylammonium p-toluenesulfonate (TMA-DPH) were purchased from Molecular Probes (Eugene, OR, USA). Tris (hydroxymethyl) aminomethane (Tris:HCl) were obtained from “Chempur” (Piekary Śląskie, Poland). Quercetin (Q) was purchased from Sigma-Aldrich. Yellow powder, ^1H-NMR (DMSO-d6) δH: 6.19 (1H, d, J = 2.1 Hz, H-6), 6.41 (1H, d, J = 2.1 Hz, H-8), 6.89 (1H, d, J = 8.5 Hz, H-5′), 7.54 (1H, dd, J = 8.5, 2.2 Hz, H-6′), 7.68 (1H, d, J = 2.2 Hz, H-2′). ^13C-NMR (DMSO-d6) δC: 93.2 (C-8), 98.0 (C-6), 102.9 (C-10), 114.9 (C-2′), 115.4 (C-5′), 119.8 (C-6′), 121.8 (C-1′), 135.6 (C-3), 144.9 (C-3′), 146.6 (C-2), 147.5 (C-4′), 156.0 (C-9), 160.6 (C-5), 163.7 (C-7), 175.7 (C=O).
This experiment, established on the basis of a modified method given in the work by Jang and Pezzuto [68], was conducted by a spectrophotometric measurement of inhibition of the cyclooxygenases’ activity COX-1 and COX-2. […] The concentrations of studied compounds fluctuated in the range 20–100 µM for Q 7-MeGlu and 5–50 µM for Q. Absorbance of the sample was followed for 3 min by measuring it at 1 min intervals, using a spectrophotometer at a wavelength of 611 nm (Cary 100 Bio, Varian) in relation to a reference sample. […]

With `O=c1c(O)c(-c2ccc(O)c(O)c2)oc2cc(O)cc(O)c12` [Quercetin, 3,3′,4′,5,7-pentahydroxyflavone] the “decrease (Δδ) in the splitting parameter of polar head groups resonance” value [1] was 32%, the “decrease in full width at half height (ν) of band of terminal methyl group” value [1] was 4% and the “increase in the half width of the membrane surface signal vs pure DPPC” value [1] was “approximately 119%”. For the same compound, the “increase of the Iout/Iin ratio vs pure DPPC” value [1] was 33% and the IC50 (COX-1) was 15.7 ± 1.73 µM.

For `CO[C@H]1[C@H](O)[C@@H](O)[C@H](Oc2cc(O)c3c(=O)c(O)c(-c4ccc(O)c(O)c4)oc3c2)O[C@@H]1CO` [Q 7-MeGlu, quercetin 7-O-β-D-(4″-O-methyl)glucopyranoside], the “decrease (Δδ) in the splitting parameter of polar head groups resonance” value [1] was 56%, the “decrease of the Iout/Iin ratio vs pure DPPC” value [1] was 13% and the “increase in the half width of the membrane surface signal vs pure DPPC” value [1] was about 142%. The IC50 (COX-1) was 45.1 ± 2.51 µM.
